Active and inactive are the calls of the source. No cut-off for these calls is given here.
Target: T1, Ectonucleotide pyrophosphatase/phosphodiesterase family member 3 (Homo sapiens) (UniProt O14638)
T1 sequence (whole entry): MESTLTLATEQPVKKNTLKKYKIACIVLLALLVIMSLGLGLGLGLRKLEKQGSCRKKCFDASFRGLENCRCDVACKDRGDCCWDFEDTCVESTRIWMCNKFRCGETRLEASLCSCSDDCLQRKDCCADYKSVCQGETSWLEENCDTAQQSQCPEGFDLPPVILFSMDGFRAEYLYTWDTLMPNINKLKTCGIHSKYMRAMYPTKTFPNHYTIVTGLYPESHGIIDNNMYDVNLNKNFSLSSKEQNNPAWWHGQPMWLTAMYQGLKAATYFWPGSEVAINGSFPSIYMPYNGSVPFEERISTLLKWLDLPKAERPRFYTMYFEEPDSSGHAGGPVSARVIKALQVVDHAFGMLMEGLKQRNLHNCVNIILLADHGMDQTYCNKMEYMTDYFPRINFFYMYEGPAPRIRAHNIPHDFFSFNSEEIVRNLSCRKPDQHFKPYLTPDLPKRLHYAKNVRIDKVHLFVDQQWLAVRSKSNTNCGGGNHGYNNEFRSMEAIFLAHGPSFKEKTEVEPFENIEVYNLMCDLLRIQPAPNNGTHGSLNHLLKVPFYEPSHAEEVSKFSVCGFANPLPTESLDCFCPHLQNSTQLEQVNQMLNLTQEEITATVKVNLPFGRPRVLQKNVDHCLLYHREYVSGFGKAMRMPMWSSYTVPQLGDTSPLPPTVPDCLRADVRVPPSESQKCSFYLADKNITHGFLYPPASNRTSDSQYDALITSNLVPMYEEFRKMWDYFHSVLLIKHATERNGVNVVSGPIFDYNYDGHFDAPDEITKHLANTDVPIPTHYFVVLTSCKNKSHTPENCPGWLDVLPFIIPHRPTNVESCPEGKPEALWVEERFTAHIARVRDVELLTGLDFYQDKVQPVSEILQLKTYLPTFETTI
Test: Inhibition of human recombinant NPP3 expressed in insect SF9 cells using ATP as substrate at >100 uM preincubated with substrate followed by protein addition and subsequent incubation for 60 mins by capillary electrophoresis

inhibition: Active
SMILES: O=c1/c(=C/c2ccc(I)o2)sc2nc3ccccc3n12
